Source: patent US20240425478A1, “CYCLOPENTYLPYRAZOLE CDK2 INHIBITORS” (Genentech, Inc., priority 2021, published 2024)
pIC50, pKi: −log10 of the molar value. Where two headings read alike, the source gives them in different places. One block for each molecule: values may come before it.

Assays:
[1] = biological target: T1, Cyclin Dependent Kinase 1/Cyclin A2 (CDK1-cycA2) (Homo sapiens, UniProt P06493); test: CDK1-cycA2 TR-FRET (Lance) enzyme assay; assay type: biochemical; conditions: for pKi: Table O, enzymatic assay; for FS CDK1/CDK2: fold selectivity, enzymatic Ki ratio
T1 construct: purchased ProQinase 0134-0054-1
In short: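 TR-FRET (Lance) detection of phospho-4E-BP1 with a europium-labelled antibody after EDTA quench (15 mM final); signal taken as acceptor/donor ratio. Enzyme and compound were pre-incubated 30 min in HEPES pH 7.5 buffer with MgCl2, TCEP, BGG and Brij 35. Ki derived by Morrison fit.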

[2] = biological target: T2, Cyclin Dependent Kinase 2/Cyclin E1 (CDK2-cycE1) (Homo sapiens, UniProt P24941); test: CDK2-cycE1 TR-FRET (LANCE) enzyme assay; assay type: biochemical; conditions: for FS CDK1/CDK2 / FS CDK4/CDK2: fold selectivity; for increased fold-selectivity CDK4/CDK2 over Comparator C: (+) sign after FS CDK4/CDK2;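 as to improvement in potency against CDK2 (Ki) over Comparator C: fold lower CDK2 Ki than comparator c (Ki 0.032 µM)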
T2 construct: purchased ProQinase 0050-0055-1
In short: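 Kinase reaction buffer: 50 mM HEPES pH 7.5, 10 mM MgCl2, 2 mM TCEP, 0.05% BGG, 0.01% Brij 35, with 30 min compound–enzyme pre-incubation.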

[3] = biological target: T3, Cyclin Dependent Kinase 4/Cyclin D3 (CDK4-cycD3) (Homo sapiens, UniProt P11802); test: CDK4-cycD3 TR-FRET (LANCE) enzyme assay; assay type: biochemical; conditions: for pKi: Table O, enzymatic assay; for FS CDK4/CDK2: fold selectivity, enzymatic Ki ratio
T3 construct: purchased Carna Biosciences 04-105
In short: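 Compound dose responses pre-incubated 30 min with enzyme mix in 50 mM HEPES pH 7.5, 10 mM MgCl2, 2 mM TCEP, 0.05% BGG, 0.01% Brij 35. Reaction quenched with EDTA (15 mM final); Eu-anti-phospho-4E-BP1 TR-FRET detection, acceptor/donor ratio. Ki derived by Morrison equation.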

[4] = tested on: OVISE (JCRB1043, CCNE1-amplified); test: OVISE EdU incorporation cell proliferation assay (CDK2-dependent); assay type: cell-based; conditions: for pIC50: cellular assay, read-out: CDK2 OVISE IC50; for FS SKOV-3/OVISE / FS p-H3/OVISE: fold selectivity; for FS p-H3/OVISE: cellular p-H3 IC50 over OVISE IC50; for increased fold-selectivity SKOV-3/OVISE over Comparator C: (+) sign after FS SKOV-3/OVISE; for improvement in CDK2 OVISE cell potency over Comparator C: Comparator C 5.5 μM
In short: (§1)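 EdU incorporation (0.5 μM final, last 8 h) follows a 16 h compound exposure at 37 °C, 5% CO2 in RPMI plus 10% FBS, 0.5% DMSO. After fixation, imaging scores EdU-positive cells; a 4-parameter logistic fit of that fraction gives IC50.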

SKOV-3 (ATCC HTB-77) = test: SKOV-3 EdU incorporation cell proliferation assay (CDK4/6-dependent); assay type: cell-based; conditions: for pIC50: Homo sapiens, cellular assay, read-out: CDK4/6 SKOV-3 IC50; for FS SKOV-3/OVISE: fold selectivity, cellular IC50 ratio
In short: as §1

HCT116 cells = test: p-H3 HCT-116 mitotic release cell proliferation assay (cellular CDK1); assay type: cell-based; conditions: Homo sapiens, HCT-116; Table O, cellular assay; read-out: CDK1 p-H3 IC50
In short: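 Phospho-Histone H3 (Ser10) in lysates was quantified by a two-antibody HTRF FRET read (≥2 h, room temperature). Before this, HCT116 cells held in mitosis by 16 h of 500 nM nocodazole were treated with compound for 4 h at 37 °C, 0.1% DMSO.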

[5] = Table O, enzymatic assay, read-out: CDK2 Ki
[6] = Table O, enzymatic CDK1 Ki over CDK2 Ki
[7] = Table O, enzymatic CDK4 Ki over CDK2 Ki
[8] = Table O, cellular SKOV-3 IC50 over OVISE IC50
[9] = Table Q, enzymatic assay, read-out: CDK2 Ki
[10] = Table Q, in brackets after OVISE IC50

T1 sequence (P06493 whole entry): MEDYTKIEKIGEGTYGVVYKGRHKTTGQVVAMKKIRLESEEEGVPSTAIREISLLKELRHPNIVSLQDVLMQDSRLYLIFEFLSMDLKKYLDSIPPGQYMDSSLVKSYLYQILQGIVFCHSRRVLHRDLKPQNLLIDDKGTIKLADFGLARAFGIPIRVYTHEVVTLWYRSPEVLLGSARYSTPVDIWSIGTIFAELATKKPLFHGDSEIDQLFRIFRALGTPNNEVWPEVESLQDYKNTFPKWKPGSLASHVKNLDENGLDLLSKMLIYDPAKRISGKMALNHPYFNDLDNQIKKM
T1 sequence (P20248 whole entry partner): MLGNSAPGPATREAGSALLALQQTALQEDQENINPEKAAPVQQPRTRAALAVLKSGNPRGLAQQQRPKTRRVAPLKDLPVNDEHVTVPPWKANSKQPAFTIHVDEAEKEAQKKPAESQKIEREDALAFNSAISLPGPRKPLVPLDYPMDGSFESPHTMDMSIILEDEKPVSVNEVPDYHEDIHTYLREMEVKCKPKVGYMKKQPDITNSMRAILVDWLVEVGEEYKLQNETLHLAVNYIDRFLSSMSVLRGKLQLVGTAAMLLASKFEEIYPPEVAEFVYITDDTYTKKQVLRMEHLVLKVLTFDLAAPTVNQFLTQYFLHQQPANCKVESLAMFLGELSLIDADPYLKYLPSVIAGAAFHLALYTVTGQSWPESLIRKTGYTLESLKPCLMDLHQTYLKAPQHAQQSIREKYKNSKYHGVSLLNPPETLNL
T3 sequence (P11802 whole entry): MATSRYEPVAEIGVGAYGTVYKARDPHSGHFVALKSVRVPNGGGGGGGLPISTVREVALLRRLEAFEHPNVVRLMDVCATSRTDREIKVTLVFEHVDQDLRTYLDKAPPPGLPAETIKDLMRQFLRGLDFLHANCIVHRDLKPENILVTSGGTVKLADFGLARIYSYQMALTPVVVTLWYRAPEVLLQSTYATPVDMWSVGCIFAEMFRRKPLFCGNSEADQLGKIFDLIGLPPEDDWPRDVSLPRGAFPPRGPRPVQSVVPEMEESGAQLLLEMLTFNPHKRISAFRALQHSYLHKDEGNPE
T3 sequence (P30281 whole entry partner): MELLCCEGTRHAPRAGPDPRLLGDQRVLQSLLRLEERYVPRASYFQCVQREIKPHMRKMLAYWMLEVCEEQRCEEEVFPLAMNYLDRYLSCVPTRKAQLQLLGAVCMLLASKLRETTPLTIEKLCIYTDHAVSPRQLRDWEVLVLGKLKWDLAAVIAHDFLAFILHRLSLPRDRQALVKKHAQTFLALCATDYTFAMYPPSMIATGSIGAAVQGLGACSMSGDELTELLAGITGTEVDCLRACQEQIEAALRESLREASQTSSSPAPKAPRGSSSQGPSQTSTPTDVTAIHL

pKi [1]: 7.33 | pKi [2, 5]: 8.74 | FS CDK1/CDK2 [2, 6]: 26 | FS CDK4/CDK2 [2, 7]: 61 | pKi [3]: 6.96 | pIC50 (SKOV-3 (ATCC HTB-77); SK-OV-3, Table O): 5.64 | pIC50 (HCT116 cells): 7.14
SMILES: O=C(NC12CC(C1)C2)O[C@@H]1CC[C@H](c2cc(Nc3cccnn3)n[nH]2)C1 [Example 3, (1R,3S)-3-(3-(pyridazin-3-ylamino)-1H-pyrazol-5-yl)cyclopentyl bicyclo[1.1.1]pentan-1-ylcarbamate]
pIC50 ([4]; Table O): 6.82 | FS SKOV-3/OVISE [4, 8]: 15 | FS p-H3/OVISE ([4]; Table O): 0.49

SMILES: CNC(=O)c1ccc(Nc2cc([C@H]3CC[C@@H](OC(=O)NC(C)(C)C)C3)[nH]n2)nc1 [Example 4E, (1R,3S)-3-(3-((5-(methylcarbamoyl)pyridin-2-yl)amino)-1H-pyrazol-5-yl)cyclopentyl tert-butylcarbamate]
pKi [1]: 7.12 | FS CDK1/CDK2 increased over Comparator D, (+) sign ([1]; Table R): (+) | FS CDK1/CDK2 ([1]; Table R): 47 | FS CDK1/CDK2 ([1]; Table S): 47 | pKi [2, 5]: 8.80 | FS CDK1/CDK2 [2, 6]: 47 | FS CDK4/CDK2 [2, 7]: 53 | pKi ([2]; Table R, enzymatic assay, read-out: CDK2 Ki): 8.80 | CDK2 Ki fold change in potency versus Comparator D ([2]; Table R, in brackets after CDK2 Ki): 1.7 fold | pKi ([2]; Table S, enzymatic assay, read-out: CDK2 Ki): 8.80 | CDK2 Ki fold change in potency versus Comparator E ([2]; Table S, in brackets after CDK2 Ki): 0.3 fold | pKi [3]: 7.08 | FS CDK4/CDK2 increased over Comparator D, (+) sign ([3]; Table R): (+) | FS CDK4/CDK2 ([3]; Table R): 53 | FS CDK4/CDK2 increased over Comparator E, (+) sign ([3]; Table S): (+) | FS CDK4/CDK2 ([3]; Table S): 53 | CDK2 cell potency compared with Comparator E ([4]; CDK2 OVISE cellular assay data): more potent CDK2 cell inhibitors compared to Comparator E | pIC50 ([4]; Table O): 7.02 | FS SKOV-3/OVISE [4, 8]: 27 | FS p-H3/OVISE ([4]; Table O): 1.1 | CDK2 OVISE IC50 fold change in potency versus Comparator D ([4]; Table R, in brackets after OVISE IC50): 40 fold | CDK2 OVISE IC50 fold change in potency versus Comparator E ([4]; Table S, in brackets after OVISE IC50): 1.8 fold | pIC50 (SKOV-3 (ATCC HTB-77); SK-OV-3, Table O): 5.59 | pIC50 (SKOV-3 (ATCC HTB-77); SK-OV-3, Table R): 5.59 | pIC50 (SKOV-3 (ATCC HTB-77); SK-OV-3, Table S): 5.59 | selectivity for CDK2 over CDK4 compared with Comparator E (SKOV-3 (ATCC HTB-77); SKOV-3/OVISE fold-selectivity cellular assay data): increase in selectivity for CDK2 over CDK4 | FS SKOV-3/OVISE increased over Comparator D, (+) sign (SKOV-3 (ATCC HTB-77); Table R): (+) | FS SKOV-3/OVISE (SKOV-3 (ATCC HTB-77); Table R): 27 | FS SKOV-3/OVISE increased over Comparator E, (+) sign (SKOV-3 (ATCC HTB-77); Table S): (+) | FS SKOV-3/OVISE (SKOV-3 (ATCC HTB-77); Table S): 27 | pIC50 (HCT116 cells): 7.00

SMILES: CC(C)NC(=O)O[C@@H]1CC[C@H](c2cc(Nc3cncc(C(F)(F)F)n3)n[nH]2)C1 [Example 2R, (1R,3S)-3-(3-((6-(trifluoromethyl)pyrazin-2-yl)amino)-1H-pyrazol-5-yl)cyclopentyl isopropylcarbamate]
pKi [1]: 9.40 | improvement in potency against CDK2 (Ki) over Comparator C [2]: 320 fold | pKi [2, 5]: > 10.00 | FS CDK1/CDK2 [2, 6]: 6.3 | FS CDK4/CDK2 [2, 7]: 140 | increased fold-selectivity CDK4/CDK2 over Comparator C ([2]; Table Q): (+) (The (+) sign in Table Q signifies desirable increased fold-selectivity of the exemplary compounds over Comparator C) | pKi [2, 9]: > 10.00 | FS CDK1/CDK2 ([2]; Table Q, enzymatic): 6.3 | FS CDK4/CDK2 ([2]; Table Q, enzymatic): 140 | pKi ([2]; read-out: CDK2 activity / potency (enzymatic assay)): ≥ 9.00 | pKi [3]: 8.05 | pIC50 ([4]; Table O): 8.25 | FS SKOV-3/OVISE [4, 8]: 30 | FS p-H3/OVISE ([4]; Table O): 0.63 | increased fold-selectivity SKOV-3/OVISE over Comparator C ([4]; Table Q): (+) (The (+) sign in Table Q signifies desirable increased fold-selectivity of the exemplary compounds over Comparator C) | FS SKOV-3/OVISE ([4]; Table Q, cellular): 30 | improvement in CDK2 OVISE cell potency over Comparator C [4, 10]: 982 fold | pIC50 (SKOV-3 (ATCC HTB-77); SK-OV-3, Table O): 6.77 | pIC50 (SKOV-3 (ATCC HTB-77); SK-OV-3, Table Q): 6.77 | pIC50 (HCT116 cells): 8.46

SMILES: Cc1cncc(Nc2cc([C@H]3CC[C@@H](OC(=O)NC(C)C)C3)[nH]n2)n1 [Example 2M, (1R,3S)-3-(3-((6-methylpyrazin-2-y1)amino)-1H-pyrazol-5-yl)cyclopentyl isopropylcarbamate]
pKi [1]: 8.20 | improvement in potency against CDK2 (Ki) over Comparator C [2]: 123 fold | pKi [2, 5]: 9.59 | FS CDK1/CDK2 [2, 6]: 24 | FS CDK4/CDK2 [2, 7]: 110 | increased fold-selectivity CDK4/CDK2 over Comparator C ([2]; Table Q): (+) (The (+) sign in Table Q signifies desirable increased fold-selectivity of the exemplary compounds over Comparator C) | pKi [2, 9]: 9.59 | FS CDK1/CDK2 ([2]; Table Q, enzymatic): 24 | FS CDK4/CDK2 ([2]; Table Q, enzymatic): 110 | pKi [3]: 7.55 | pIC50 ([4]; Table O): 7.70 | FS SKOV-3/OVISE [4, 8]: 29 | FS p-H3/OVISE ([4]; Table O): 0.35 | increased fold-selectivity SKOV-3/OVISE over Comparator C ([4]; Table Q): (+) (The (+) sign in Table Q signifies desirable increased fold-selectivity of the exemplary compounds over Comparator C) | FS SKOV-3/OVISE ([4]; Table Q, cellular): 29 | improvement in CDK2 OVISE cell potency over Comparator C [4, 10]: 275 fold | pIC50 (SKOV-3 (ATCC HTB-77); SK-OV-3, Table O): 6.24 | pIC50 (SKOV-3 (ATCC HTB-77); SK-OV-3, Table Q): 6.24 | pIC50 (HCT116 cells): 8.15
